Test results taken from ChEMBL document CHEMBL1154560, “New sesquiterpene/quinones from two sponges of the genus Hyrtios” (J Nat Prod, 2000).
≈ marks a conversion by molar mass, not a printed value.

Assay: Toxicity in Artemia larvae
Type: organism-based
Details: in vivo, read-out: LD50 (the source's name)

Structure (SMILES) | LC50 [µg/mL]
C=C1CCC[C@H]2[C@](C)(CC3=C(O)C(=O)C=C(OC)C3=O)[C@@H](C)CC[C@@]12C | 4 (≈ 11.2 µM)
COC1=CC(=O)C(O)=C(C[C@]2(C)[C@@H](C)CC[C@]3(C)C(C)=CCC[C@@H]23)C1=O [ISOSPONGIAQUINONE] | 2 (≈ 5.58 µM)
